Results as given in US9371331B2, “Modulators of methyl modifying enzymes, compositions and uses thereof” (Constellation Pharmaceuticals, Inc., priority 2012, dated 2016).
Where two headings read alike, the source gives them in different places.

Assays:
EZH2 (rPRC2) = EZH2 (rPRC2) (Homo sapiens, UniProt Q15910); assay: EZH2 assay: rPRC2, biotinylated oligonucleosomes, 3H SAM methyl transfer (FlashPlate scintillation); type: biochemical; conditions: biotinylated oligonucleosome substrate
Y641N EZH2 = Y641N EZH2 (Homo sapiens, UniProt Q15910, Y641N); assay: Y641N EZH2 assay: as EZH2 assay, with reconstituted H3K27Me2 oligonucleosomes as substrate; type: biochemical
Sequence of Y641N EZH2 (Q15910 whole entry Y641N): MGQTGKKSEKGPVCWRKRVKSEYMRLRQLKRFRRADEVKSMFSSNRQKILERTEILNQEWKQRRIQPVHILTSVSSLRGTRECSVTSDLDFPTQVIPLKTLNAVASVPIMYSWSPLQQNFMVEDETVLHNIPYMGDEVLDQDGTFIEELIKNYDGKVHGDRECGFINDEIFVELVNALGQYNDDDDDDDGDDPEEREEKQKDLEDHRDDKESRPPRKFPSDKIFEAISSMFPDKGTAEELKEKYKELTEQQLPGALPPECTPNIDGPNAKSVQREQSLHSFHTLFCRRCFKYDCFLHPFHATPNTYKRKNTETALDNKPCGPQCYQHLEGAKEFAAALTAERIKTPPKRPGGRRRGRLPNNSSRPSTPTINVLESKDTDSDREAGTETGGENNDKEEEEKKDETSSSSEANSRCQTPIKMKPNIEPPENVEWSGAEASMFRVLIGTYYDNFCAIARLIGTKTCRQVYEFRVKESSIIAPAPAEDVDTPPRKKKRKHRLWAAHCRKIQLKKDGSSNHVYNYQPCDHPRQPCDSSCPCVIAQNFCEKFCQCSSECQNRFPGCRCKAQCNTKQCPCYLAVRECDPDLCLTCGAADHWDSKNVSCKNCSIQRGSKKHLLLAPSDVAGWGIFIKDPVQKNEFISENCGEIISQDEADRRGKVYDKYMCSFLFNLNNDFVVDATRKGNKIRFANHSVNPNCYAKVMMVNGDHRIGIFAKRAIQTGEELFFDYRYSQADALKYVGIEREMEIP
Sequence of Y641N EZH2 (O75530 whole entry partner): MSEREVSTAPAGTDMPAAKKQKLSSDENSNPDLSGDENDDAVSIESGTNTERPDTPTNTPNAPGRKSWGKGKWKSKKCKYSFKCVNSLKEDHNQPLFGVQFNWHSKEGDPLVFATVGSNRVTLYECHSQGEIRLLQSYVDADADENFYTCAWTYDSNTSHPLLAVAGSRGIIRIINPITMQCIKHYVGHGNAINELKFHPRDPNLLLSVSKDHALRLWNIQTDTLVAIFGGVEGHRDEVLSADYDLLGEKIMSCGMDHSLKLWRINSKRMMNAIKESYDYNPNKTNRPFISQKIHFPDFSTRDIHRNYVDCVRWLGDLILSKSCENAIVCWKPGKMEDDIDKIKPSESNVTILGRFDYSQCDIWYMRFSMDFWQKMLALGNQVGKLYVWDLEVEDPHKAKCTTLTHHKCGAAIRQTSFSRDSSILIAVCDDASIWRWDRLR
Sequence of Y641N EZH2 (Q15022 whole entry partner): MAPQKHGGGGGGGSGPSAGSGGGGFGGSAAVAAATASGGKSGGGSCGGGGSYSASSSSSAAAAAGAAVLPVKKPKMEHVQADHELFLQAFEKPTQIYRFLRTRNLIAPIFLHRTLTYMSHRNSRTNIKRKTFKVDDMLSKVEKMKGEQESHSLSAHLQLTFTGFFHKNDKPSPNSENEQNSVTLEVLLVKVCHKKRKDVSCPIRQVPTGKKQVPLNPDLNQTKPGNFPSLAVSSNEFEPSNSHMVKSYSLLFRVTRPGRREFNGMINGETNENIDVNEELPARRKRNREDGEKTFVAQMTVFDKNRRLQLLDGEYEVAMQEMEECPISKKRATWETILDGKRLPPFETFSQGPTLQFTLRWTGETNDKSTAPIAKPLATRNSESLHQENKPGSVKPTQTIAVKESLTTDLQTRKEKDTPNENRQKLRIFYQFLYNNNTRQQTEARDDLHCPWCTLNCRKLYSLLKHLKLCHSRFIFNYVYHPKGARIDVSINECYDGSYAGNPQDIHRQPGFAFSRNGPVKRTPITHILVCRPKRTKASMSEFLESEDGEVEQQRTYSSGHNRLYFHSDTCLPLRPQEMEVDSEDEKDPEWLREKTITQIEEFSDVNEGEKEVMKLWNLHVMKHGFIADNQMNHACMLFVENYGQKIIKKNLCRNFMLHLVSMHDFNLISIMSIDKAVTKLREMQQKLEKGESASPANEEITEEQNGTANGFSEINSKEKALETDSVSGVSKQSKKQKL

[1] = tested on: H3K27me3 mark in HeLa cells; assay: H3K27me3 MSD Hela Assay; type: cell-based; conditions: Homo sapiens, read-out: H3K27me3_MSD_HeLa_ (EC50)
Experimental: Trypsinized HeLa cells were counted and diluted in 10% DMEM (Life Technologies, Cat. #10569) to 5000 cells/75 μL. Seventy-five […] of cells were place in each well of a 96-well flat-bottomed plate and incubated at 37° C. for 4 hours. Twenty-five μL of test compound (at various concentrations) was added to the cells and incubation continued at 37° C. for 96 hours. Media was then removed and the cells rinsed once with ice cold PBS. Forty μL of ice-cold MSD Buffer AT (10 mM HEPES, pH 7.9, 5 mM MgCl2, 0.25M sucrose, Benzonase (1:10000), 1% Triton X-100 supplemented with fresh 1× Protease Inhibitor cocktail and 1 mM 4-(2-Aminoethyl)benzenesulfonyl fluoride hydrochloride (AEBSF)) was added to each well and the plates placed on ice for 30 minutes. Ten μL of 5M NaCl was then added to each well and incubation on ice continued for another 15 minutes. The material in each well was suspended pipetting up and down and then transferred to a new 96 well plate. The emptied wells were rinsed with 150 uL ice-cold 20 mM Tris pH 7.5, 1 mM EDTA, 1 mM EGTA, supplemented with fresh 1× Protease Inhibitor cocktail and 1 mM AEBSF (“NO salt NO detergent buffer) and transferred to the respective wells in the new plate. Three hundred μL of NO Salt NO detergent buffer was then added to each well of lysates and the plates frozen at −80° C.
On the same day, an appropriate number of MSD standard bind 96-well plates were coated with 30 μL/well of total H3 capture antibody (Millipore. Cat #MAB3422) at 1 μg/mL concentration in PBS. The antibody solution was evenly distributed first by tapping gently on the sides of the plates and then by shaking the plates for a few minutes at 1000 rpm. Antibody coated plates were stored at 4° C. overnight.
The next day the lysates are thawed to RT. The antibody coated MSD plates are washed 3× with TBS-T (Tris-buffered saline (Fisher Scientific, Cat #BP2471-1)+0.2% Tween-20). One-hundred fifty μL of 5% Blocker A in TBS-T is added to each well. The wells are covered and shaken on a shaker at RT for one hour. The Blocker A step is repeated a second time. After removing the blocker, 25 μL of cell lysate is transferred into each antibody coated well. The plates are shaken for 2 hours at RT, the lysate removed and the plates again washed with Blocker A in TBS-T. Twenty-five μL of appropriate freshly prepared antibody mix (including both primary and secondary antibodies) is added to each well and the plates shaken for 1 hour at RT.
Both H3 antibodies were obtained from Cell Signalling (Cat #s 4499 and 9733). The goat anti-rabbit antibody was obtained from Meso-Scale Discovery (Cat #R32AB-1).
The antibody mix was then removed and the wells washed with Blocker A. One hundred-fifty μL of freshly prepared 1×MSD Read Buffer (Meso-Scale Discovery; Cat #R927C-2) was then added to each well and the plates read on a MSD Sector 2400 Plate Reader.
Data was analyzed using Assay Assistant (Constellation Pharmaceuticals In-house product) and Activity Base (IDBS Ltd, Surrey, UK) template. Data files were imported to Assay Assistant and assay conditions were specified. A unique Analysis ID was created and the data files exported to Activity Base. An analysis template was created on Activity Base to measure dose-dependent inhibition of H3K27me3 mark and cell viability respectively. Readout of DMSO wells were used to normalize the data. Resulting curves were fitted using Activity base software Model 205 (IDBS Ltd. Surrey, UK). The data was checked for quality, validated and integrated in excel format using SARview (IDBS Ltd, Surrey, UK).

[2] = EZH2 IC50, wild-type EZH2 (rPRC2)
[3] = Y641N EZH2 IC50, Y641N mutant EZH2, H3K27Me2 oligonucleosome substrate
[4] = wild-type EZH2 (rPRC2), read-out: EZH2 IC50
[5] = Y641N mutant EZH2, H3K27Me2 oligonucleosome substrate, read-out: Y641N EZH2 IC50

Sequence of EZH2 (rPRC2) (Q15910 whole entry): as the sequence (Q15910 whole entry Y641N) above, with N641Y counted along it
Sequence of EZH2 (rPRC2) (O75530 whole entry partner): as the sequence (O75530 whole entry partner) above
Sequence of EZH2 (rPRC2) (Q15022 whole entry partner): as the sequence (Q15022 whole entry partner) above

| SMILES | IC50 (EZH2 (rPRC2); [2]) [nM] | IC50 (Y641N EZH2; [3]) [nM] | EC50 ([1]; HeLa, 96 h) [nM] | IC50 (EZH2 (rPRC2); [4]) [nM] | IC50 (Y641N EZH2; [5]) [nM] | EC50 ([1]; HeLa cells, MSD, 96 hours) [nM] |
| --- | --- | --- | --- | --- | --- | --- |
| COc1cc(C(C)n2c(C)c(C(=O)NCc3c(C)cc(C)[nH]c3=O)c3cccnc32)ccn1 (racemic) [Compound 207, (±)-N-((4,6-dimethyl-2-oxo-1,2-dihydropyridin-3-yl)methyl)-1-(1-(2-methoxypyridin-4-yl)ethyl)-2-methyl-1H-pyrrolo[2,3-b]pyridine-3-carboxamide] | < 100 | 100 to 1000 | 2000 to 10000 | – | – | – |
| COc1cc(C)[nH]c(=O)c1CNC(=O)c1c(C)n(C(C)c2ccccc2)c2cnccc12 (racemic) [Compound 243, (±)-N-((4-methoxy-6-methyl-2-oxo-1,2-dihydropyridin-3-yl)methyl)-2-methyl-1-(1-phenylethyl)-1H-pyrrolo[2,3-c]pyridine-3-carboxamide] | < 100 | 100 to 1000 | 2000 to 10000 | – | – | – |
| Cc1cc(C)c(COC(=O)c2c(C)n(C3CCc4ccccc43)c3ncccc23)c(=O)[nH]1 (racemic) [Compound 201, (±)-(4,6-dimethyl-2-oxo-1,2-dihydropyridin-3-yl)methyl 1-(2,3-dihydro-1H-inden-1-yl)-2-methyl-1H-pyrrolo[2,3-b]pyridine-3-carboxylate] | – | – | – | < 100 | 100 to 1000 | 400 to 2000 |
| COCC(C)n1c(C)c(C(=O)NCc2c(OC)cc(C)[nH]c2=O)c2cc(F)ccc21 (racemic) [Compound 230, (±)-5-fluoro-N-((4-methoxy-6-methyl-2-oxo-1,2-dihydropyridin-3-yl)methyl)-1-(1-methoxypropan-2-yl)-2-methyl-1H-indole-3-carboxamide] | < 100 | 100 to 1000 | 400 to 2000 | – | – | – |
| COCC(C)n1c(C)c(C(=O)NCc2c(C)cc(C)[nH]c2=O)c2scnc21 (racemic) [Compound 254, (±)-N-((4,6-dimethyl-2-oxo-1,2-dihydropyridin-3-yl)methyl)-4-(1-methoxypropan-2-yl)-5-methyl-4H-pyrrolo[2,3-d]thiazole-6-carboxamide] | – | – | – | 100 to 1000 | 100 to 1000 | 2000 to 10000 |
| COc1cc(C)[nH]c(=O)c1CNC(=O)c1c(C)n(C(C)c2cccc(C(N)=O)c2)c2ncccc12 (racemic) [Compound 242, (±)-1-(1-(3-carbamoylphenyl)ethyl)-N-((4-methoxy-6-methyl-2-oxo-1,2-dihydropyridin-3-yl)methyl)-2-methyl-1H-pyrrolo[2,3-b]pyridine-3-carboxamide] | – | – | – | < 100 | 100 to 1000 | 2000 to 10000 |
| Cc1cc(C)c(CNC(=O)c2c(C)n([C@H](C)c3ccccc3)c3nc(N)ncc23)c(O)n1 [Compound 144, (R)-2-amino-N-((2-hydroxy-4,6-dimethylpyridin-3-yl)methyl)-6-methyl-7-(1-phenylethyl)-7H-pyrrolo[2,3-d]pyrimidine-5-carboxamide] | < 100 | 100 to 1000 | 2000 to 10000 | – | – | – |
| COCC(C)n1c(C)c(C(=O)NCc2c(C)cc(C)[nH]c2=O)c2ccncc21 (racemic) [Compound 240, (±)-N-((4,6-dimethyl-2-oxo-1,2-dihydropyridin-3-yl)methyl)-1-(1-methoxypropan-2-yl)-2-methyl-1H-pyrrolo[2,3-c]pyridine-3-carboxamide] | < 100 | 100 to 1000 | 2000 to 10000 | – | – | – |
| Cc1cc(C)c(CNC(=O)c2c(C)n([C@H](C)c3ccccc3)c3ncncc23)c(O)n1 [Compound 395, (R)—N-((2-hydroxy-4,6-dimethylpyridin-3-yl)methyl)-6-methyl-7-(1-phenylethyl)-7H-pyrrolo[2,3-d]pyrimidine-5-carboxamide] | < 100 | 100 to 1000 | 2000 to 10000 | – | – | – |
| COCC(C)n1c(C)c(C(=O)NCc2c(OC)cc(C)[nH]c2=O)c2cccnc21 (racemic) [Compound 204, (±)-N-((4-methoxy-6-methyl-2-oxo-1,2-dihydropyridin-3-yl)methyl)-1-(1-methoxypropan-2-yl)-2-methyl-1H-pyrrolo[2,3-b]pyridine-3-carboxamide] | < 100 | 100 to 1000 | 400 to 2000 | – | – | – |
| COc1cc(C)[nH]c(=O)c1CNC(=O)c1c(C)n(C(C)C2(C)COC2)c2ccccc12 (racemic) [Compound 291] | < 100 | 100 to 1000 | 400 to 2000 | – | – | – |
| Cc1cc(C)c(CNC(=O)c2c(C)n(C(C)CS(C)(=O)=O)c3ncccc23)c(=O)[nH]1 (racemic) [Compound 250, (±)-N-((4,6-dimethyl-2-oxo-1,2-dihydropyridin-3-yl)methyl)-2-methyl-1-(1-(methylsulfonyl)propan-2-yl)-1H-pyrrolo[2,3-b]pyridine-3-carboxamide] | – | – | – | < 100 | 100 to 1000 | 2000 to 10000 |
| Cc1ccc(C)c(-n2c(C)c(C(=O)NCc3c(C)cc(C)[nH]c3=O)c3ccccc32)c1 [Compound 191, N-((4,6-dimethyl-2-oxo-1,2-dihydropyridin-3-yl)methyl)-1-(2,5-dimethylphenyl)-2-methyl-1H-indole-3-carboxamide] | – | – | – | < 100 | < 100 | 2000 to 10000 |
| Cc1cc(C)c(CNC(=O)c2c(C)n(S(=O)(=O)c3ccccc3)c3ccccc23)c(O)n1 [Compound 145, N-((4,6-dimethyl-2-oxo-1,2-dihydropyridin-3-yl)methyl)-2-methyl-1-(phenylsulfonyl)-1H-indole-3-carboxamide] | – | – | 2000 to 10000 | < 100 | 100 to 1000 | – |
| COC[C@@H](C)n1c(C)c(C(=O)NCc2c(OC)cc(C)[nH]c2=O)c2cncnc21 [Compound 303, (R)-N-((4-methoxy-6-methyl-2-oxo-1,2-dihydropyridin-3-yl)methyl)-7-(1-methoxypropan-2-yl)-6-methyl-7H-pyrrolo[2,3-d]pyrimidine-5-carboxamide] | < 100 | 100 to 1000 | 400 to 2000 | – | – | – |
| Cc1cc(C)c(CNC(=O)c2c(C)n(C(C)c3cccc(Br)c3)c3ccccc23)c(=O)[nH]1 (racemic) [Compound 171, (±)-1-(1-(3-bromophenyl)ethyl)-N-((4,6-dimethyl-2-oxo-1,2-dihydropyridin-3-yl)methyl)-2-methyl-1H-indole-3-carboxamide] | < 100 | < 100 | 2000 to 10000 | – | – | – |
| Cc1cc(C)c(CNC(=O)c2c(C)n([C@H](C)c3ccccc3)c3nc(N4CCNCC4)ncc23)c(O)n1 [Compound 169, (R)-N-((2-hydroxy-4,6-dimethylpyridin-3-yl)methyl)-6-methyl-7-(1-phenylethyl)-2-(piperazin-1-yl)-7H-pyrrolo[2,3-d]pyrimidine-5-carboxamide] | – | – | – | < 100 | 100 to 1000 | > 10000 |
| Cc1cc(C)c(CNC(=O)c2c(C)n(C(C)c3ccccc3)c3ncccc23)c(O)n1 (racemic) [Compound 146, N-((2-hydroxy-4,6-dimethylpyridin-3-yl)methyl)-2-methyl-1-(1-phenylethyl)-1H-pyrrolo[2,3-b]pyridine-3-carboxamide] | < 100 | 100 to 1000 | 400 to 2000 | – | – | – |
